Laboratory results: paper PMC6379637, “Consecutive influenza surveillance of neuraminidase mutations and neuraminidase inhibitor resistance in Japan” (Influenza and Other Respiratory Viruses, 2019)
Where “and” joins values, the source holds several entries; their conditions need not be identical. Identical values can stand only once. Like-named read-outs stand apart in the source and are kept apart here.

Tests used:
[1] = molecular target: A/H3N2 neuraminidase; format: biochemical, influenza A/H3N2 virus
[2] = tested on: A/H1N1pdm09 neuraminidase; format: biochemical, influenza A/H1N1pdm09 virus
[3] = tested on: influenza B neuraminidase; format: biochemical, influenza B virus
[4] = read-out: IC50 (nM), second column without sub-head (median IC50 value)

Row | Compound | IC50 ([1]; read-out: median IC50 values) | IC50 ([1]; read-out: IC50 (nM), median IC50 value (unheaded second column)) | IC50 [1, 4] | IC50 ([1]; read-out: IC50 (nM), second unheaded column: median IC50 value) | IC50 ([1]; read-out: median IC50 value) | IC50 ([1]; read-out: median IC50 value (unheaded second column under IC50 (nM))) | reduced susceptibility class (RI/HRI, WHO criteria) [2] | IC50 ([2]; read-out: median IC50 values) | Fold change (IC50 / median IC50) [3] | Fold change (ratio of IC50 to the median IC50 value) [3] | IC50 ([3]; read-out: median IC50 values)
1 | CCOC(=O)C1=C[C@@H](OC(CC)CC)[C@H](NC(C)=O)[C@@H](N)C1 [Oseltamivir, oseltamivir phosphate] | 1.1 nM | – | – | – | – | – | – | – | – | – | –
2 | CCC(CC)[C@H](NC(C)=O)[C@@H]1[C@H](O)[C@@H](C(=O)O)C[C@H]1N=C(N)N [Peramivir, peramivir hydrate] | – | 1 nM | 0.8 nM | 0.7 nM | 0.7 nM | 0.7 nM | RI (key: For A viruses, reduced inhibition (RI) was defined as a 10‐fold to 100‐fold increase in IC50 values; highly reduced inhibition (HRI) was defined as more than 100‐fold increase in IC50 values) | 0.3 nM and 0.5 nM and 0.4 nM | 0.9 and 0.762 and 1.0 and 0.857 and 0.667 and 1.2 and 1.1 and 0.952 | 0.8 and 1.1 and 0.7 and 0.76 and 1.0 and 1.3 and 1.2 and 0.9 | 2.5 nM and 2.1 nM
3 | CC(=O)N[C@H]1[C@H]([C@H](O)[C@H](O)CO)OC(C(=O)O)=C[C@@H]1N=C(N)N [Zanamivir, zanamivir hydrate] | 2.4 nM | – | 2.2 nM | – | 1.6 nM | – | – | – | – | – | –
